Assay results: patent US8404704B2 (Alfa Wassermann S.p.A., priority 2003, dated 2013)

How the values were obtained:
[1] = Intrinsic dissolution test (USP 27 monograph 1087); assay type: physicochemical; settings: 0.1M aqueous phosphate buffer pH 7.4 with 0.45% sodium lauryl sulphate, 37°C
Excerpt: The die-holder containing the compacted pellet was then mounted on a laboratory stirring device, immersed in a dissolution medium and rotated by means of the stirring device.
A compacted pellet was formed in the die with a single face of defined area exposed on the bottom of the die so that from 50% to 75% of the compacted pellet could dissolve in an appropriate dissolution medium.
The holder containing the die was mounted on a laboratory stirring device, immersed in a glass vessel containing a dissolution medium and rotated at a rotation speed of 100 rpm by means of the stirring device, while keeping the temperature of the dissolution medium at 37±0.5° C. The dissolution medium contained in the glass vessel consisted of 1000 ml of 0.1M aqueous phosphate buffer pH 7.4 containing 4.5 g of sodium lauryl sulphate (SLS) and was kept at 37±0.5° C. for the whole duration of the test.

in vivo [2] = assay: in vivo; set-up: species or system Beagle female dogs; settings: female, beagle, dog, po; for Tmax: tmax (characterising range of the form)
Protocol: Twelve 20 week pure-bred Beagle female dogs weighing between 5.0 and 7.5 kg, have been divided into three groups of four dogs.
Each sample was transferred into an heparinized tube and was centrifuged; the plasma was divided into two 500 μl aliquots and frozen at −20° C.
(§1) Tmax=time at which the Cmax is reached;
(§2) AUC=area under the concentration-time curve calculated through the linear trapezoidal rule.

in vivo [3] = assay: in vivo; set-up: species or system Beagle female dogs; settings: dog; for Tmax / AUC(0-t) / AUC(0-inf) / Cmax: female, beagle, po; for AUC(0-t): AUC0-24 h; for AUC(0-inf): AUC0-inf
Protocol: Sixteen 20 week pure-bred Beagle female dogs weighing between 5.0 and 7.5 kg, have been divided into four groups of four dogs.
Each sample was transferred into a heparinized tube and was centrifuged; the plasma was divided into 500 μl two aliquots and frozen at −20° C.
as §1, §2

[4] = Intrinsic dissolution test (USP 27 monograph 1087); assay type: physicochemical; settings: phosphate buffer pH 7.4, 37°C; SLS 0.1%, 0.3%, 0.45% and absent
[5] = Reversible conversion of polymorphic forms with water content; assay type: physicochemical; settings: water absorbed from atmospheric humidity
Excerpt: The product is hygroscopic and the obtained polymorphic form is reversible: the polymorphic form α absorbs water from atmospheric humidity, depending on the relative humidity and the exposure time. When the water content absorbed by the polymorphic form α becomes higher than 4.5%, polymorphous a converts to polymorphous β. This in its turn loses part of water by drying, changing into the polymorphic form α when a water content between […] is reached.

| Intrinsic dissolution rate [1] | Rifaximin dissolved ([1]; 15 min) | Rifaximin dissolved ([1]; 30 min) | Rifaximin dissolved ([1]; 45 min) | Rifaximin dissolved ([1]; 60 min) | AUC0-24h (characterising range of the form) (in vivo [2]) | AUC0-inf (characterising range of the form) (in vivo [2]) | Cmax (characterising range of the form) (in vivo [2]) | AUC0-inf (characterising range of the form) (in vivo [2]; 100 mg/kg) | Cmax (characterising range of the form) (in vivo [2]; 100 mg/kg) | tmax (characterising range of the form) (in vivo [2]; 100 mg/kg) | Structure (SMILES) | also measured |
| --- | --- | --- | --- | --- | --- | --- | --- | --- | --- | --- | --- | --- |
| 0.0147 mg/min/cm^2 | 0.28 mg/cm^2 | 0.50 mg/cm^2 | 0.72 mg/cm^2 | 0.94 mg/cm^2 | 0 to 40 ng·h/mL | 0 to 45 ng·h/mL | 0.0 to 40 ng/mL | 0.0 to 50 ng·h/mL | 0.0 to 3.7 ng/mL | – | CO[C@H]1/C=C/O[C@@]2(C)Oc3c(C)c(O)c4c(O)c(c5c(nc6cc(C)ccn65)c4c3C2=O)NC(=O)/C(C)=C\C=C\[C@H](C)[C@H](O)[C@@H](C)[C@@H](O)[C@@H](C)[C@H](OC(C)=O)[C@@H]1C [rifaximin β, Rifaximin] | tmax (characterising range of the form) (in vivo [2]): 1 to 6 h; AUC(0-t) (in vivo [2]; 100 mg/kg, AUC0-t (characterising range of the form)): < 40 ng·h/mL; Tmax (in vivo [2]; 100 mg/kg): 1 to 6 h |
| – | – | – | – | – | 0 to 100 ng·h/mL | 10 to 24 ng·h/mL | 0.0 to 10 ng/mL | 0 to 110 ng·h/mL | 0.0 to 5.5 ng/mL | 1.0 to 6 h | CO[C@H]1/C=C/O[C@@]2(C)Oc3c(C)c(O)c4c(O)c(c5c(nc6cc(C)ccn65)c4c3C2=O)NC(=O)/C(C)=C\C=C\[C@H](C)[C@H](O)[C@@H](C)[C@@H](O)[C@@H](C)[C@H](OC(C)=O)[C@@H]1C [rifaximin α, Rifaximin] | Tmax (in vivo [3]; 100 mg/kg, tmax): 2.5 h; disintegration of the compacted pellet [4]: ≤ 10 min; Tmax (in vivo [2]): 1 to 6 h; water content above which form α converts to form β [5]: higher than 4.5% |
| 0.1444 mg/min/cm^2 | 2.46 mg/cm^2 | 4.52 mg/cm^2 | 6.44 mg/cm^2 | 9.04 mg/cm^2 | – | 0.0 to 22000 ng·h/mL | – | – | 0.0 to 5000 ng/mL | 1.0 to 6.0 h | CO[C@H]1/C=C/O[C@@]2(C)Oc3c(C)c(O)c4c(O)c(c5c(nc6cc(C)ccn65)c4c3C2=O)NC(=O)/C(C)=C\C=C\[C@H](C)[C@H](O)[C@@H](C)[C@@H](O)[C@@H](C)[C@H](OC(C)=O)[C@@H]1C [rifaximin γ, Rifaximin] | dose dependency of exposure (in words) (in vivo [3]): tended to increase in an over-proportional way compared to the administered dose; AUC(0-t) (in vivo [3]; 25 mg/kg): 304 ng·h/mL; AUC(0-inf) (in vivo [3]; 25 mg/kg): 548 ng·h/mL; Cmax (in vivo [3]; 25 mg/kg): 114 ng/mL; Tmax (in vivo [3]; 25 mg/kg, tmax): 1.5 h; Tmax (in vivo [3]; 100 mg/kg): 2 h; AUC(0-t) (in vivo [3]; 300 mg/kg): 25000 ng·h/mL; AUC(0-inf) (in vivo [3]; 300 mg/kg): 25500 ng·h/mL; Cmax (in vivo [3]; 300 mg/kg): 3150 ng/mL; Tmax (in vivo [3]; 300 mg/kg, tmax): 3 h; AUC(0-t) (in vivo [2]; 100 mg/kg, AUC0-24h (characterising range of the form)): < 22000 ng·h/mL; Cmax (in vivo [2]; Cmax): 1080 ng/mL |
